Data taken from patent US20200316050A1, “A TOPICAL COMPOSITION BASED ON NIACINAMIDE DERIVATIVE” (Conopco, Inc., d/b/a UNILEVER, priority 2017, published 2020).

Test system: Human neonatal primary skin keratinocyte (NHEK) cells
Assay: psoriasin (AMP marker) secretion by human keratinocytes, ELISA of culture supernatant
Assay type: cell-based
Details: 72 hours incubation, KGM with 2 mM calcium chloride
Procedure: Step 1: Human neonatal primary skin keratinocyte (NHEK) cells was obtained from Lonza ®. The experiment was done with the above-mentioned cells with passage between 3 and 4. Then, the cells were seeded (35,000 cells/well) in 24 well plate with keratinocyte growth media (KGM) obtained from Invitrogen®. The plate was then incubated at 37±2° C. in a CO2 incubator for 48 hours.
Step 2: After 48 hours of incubation, cell differentiation was induced by replacing media with fresh KGM supplemented with 2 mM calcium chloride solution. This was then followed by incubation at 37±2° C. in a CO2 incubator for 48 hours.
Step 3: After that, the cells were treated with different concentration (as outlined table 1 below) of N-cyclopentyl nicotinamide, with keratinocyte growth media supplemented with 2mM calcium chloride solution:
Step 4: After the above treatment, cells were again incubated at 37±2° C. in a CO2 incubator for 72 hours.
Step 5: After 72 hours of incubation, cell culture supernatant from each well was collected in a sterile tube. The samples were then stored at -80° C. until used for testing psoriasin secretion by standard ELISA technique using psoriasin ELISA kit obtained from Circulx® (No: CY-8073). In the current experiment, psoriasin was used as a marker for AMP.
Step 6: The ELISA method was performed by using 100 μL of cell culture supernatant from each sample.
The data is expressed in terms of fold change over control (no treatment:
Example A). The fold change in psoriasin levels in case of control (example A) is taken to be equal to 1 fold. Any fold change in psoriasin obtained due to treatments outlined in all the other examples was over and above the 1 fold change obtained from the control.

Compound | Fold Change in psoriasin levels over control (no treatment, Example A = 1) (200 μg/mL) [fold] | Fold Change in psoriasin levels over control (no treatment, Example A = 1) (500 μg/mL) [fold] | Fold Change in psoriasin levels over control (no treatment, Example A = 1) (400 μg/mL) [fold]
NC(=O)c1cccnc1 [B, Niacinamide] | 0.9 | 1.4 | –
O=C(NC1CCCC1)c1cccnc1 [Example 1, N-cyclopentyl nicotinamide] | 2.06 | – | 2.84
